From patent US6444670B2 (Wyeth, priority 1998, dated 2002)

What was measured:
diabetic (ob/ob) mice = experiment: Blood glucose lowering in diabetic (ob/ob) mice; assay type: in vivo, mouse; conditions: for % Change Glucose from Vehicle: plasma glucose
Source text: The procedures used and results obtained are briefly described below.
The non-insulin dependent diabetic (NIDDM) syndrome can be typically characterizes by obesity, hyperglycemia, abnormal insulin secretion, hyperinsulinemia and insulin resistance.
In each test procedure, mice [Male or female ob/ob (C57 B1/6J) and their lean litermates (ob/+ or +/+, Jackson Laboratories) ages 2 to 5 months (10 to 65 g)] of a similar age were randomized according to body weight into 4 groups of 10 mice. The mice were housed 5 per cage and are maintained on normal rodent chow with water ad libitum. Mice received test compound daily by gavage (suspended in 0.5 ml of 0.5% methyl cellulose); dissolved in the drinking water; or admixed in the diet. The dose of compounds given ranges from 2.5 to 200 mg/kg body weight/day. The dose is calculated based on the fed weekly body weight and is expressed as active moiety. […] Control mice received vehicle only.
On the morning of Day 4, 7 or 14 two drops of blood (approximetly 50 ul) were collected into sodium fluoride containing tubes either from the tail vein or after decapitation. For those studies in which the compound was administered daily by gavage the blood samples were collected 0 and 4 hours after compound administration. The plasma was isolated by centrifugation and the concentration of glucose is measured enzymatically on an Abbott V. P. Analyzer.
For each mouse, the percentage change in plasma glucose on Day 4, 7 or 14 is calculated relative to the mean plasma glucose of the vehicle treated mice. Analysis of variance followed by Dunett's Comparison Test (one-tailed) are used to estimate the significant difference between the plasma glucose values from the control group and the individual compound treated groups (CMS SAS Release 5.18).

[1] = target: T1, Human recombinant PTP1B (hPTP1B) (Homo sapiens, UniProt P18031); assay type: biochemical
T1 construct: made in house
T1 sequence (P18031 1-435): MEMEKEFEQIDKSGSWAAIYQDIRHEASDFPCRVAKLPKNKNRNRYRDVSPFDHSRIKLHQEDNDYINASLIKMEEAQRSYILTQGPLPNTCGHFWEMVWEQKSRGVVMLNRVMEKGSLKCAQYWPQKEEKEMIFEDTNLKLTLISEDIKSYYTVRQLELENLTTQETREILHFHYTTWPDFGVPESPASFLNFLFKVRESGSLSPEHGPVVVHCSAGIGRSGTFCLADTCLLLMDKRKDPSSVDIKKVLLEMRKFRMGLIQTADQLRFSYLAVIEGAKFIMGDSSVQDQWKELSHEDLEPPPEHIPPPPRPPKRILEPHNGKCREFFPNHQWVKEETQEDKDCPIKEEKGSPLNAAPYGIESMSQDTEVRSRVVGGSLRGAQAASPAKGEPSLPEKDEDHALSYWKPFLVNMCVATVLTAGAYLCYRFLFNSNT

[2] = test system: rat hepatic microsomal PTPases; conditions: 50 μM compound
[3] = dose 25 mg/Kg, (a) = no significant activity (p < 0.05) at this dose
[4] = dose 10 mg/Kg, (a) = no significant activity (p < 0.05) at this dose

Row | melting point | IC50 [1] | % Change from Control [2] | Compound | % Change Glucose from Vehicle (diabetic (ob/ob) mice; [3]) | also measured
1 |  |  |  | CC1(COc2ccc(CC3SC(=O)NC3=O)cc2)CCCCC1 (stereo not shown) [Ciglitazone, 5-(4-(1-methylcyclohexylmethoxy)benzyl)-2,4-dione, reference compound] |  | % Change Insulin from Vehicle (diabetic (ob/ob) mice; dose 100 mg/Kg): −39 ^ %; % Change Glucose from Vehicle (diabetic (ob/ob) mice; dose 100 mg/Kg): −43 ^ %
2 | 147 to 150 °C |  |  | CC(=O)Oc1ccc(-c2c3ccccc3cc3sc(C)c(C)c23)cc1 [Example 6, Acetic Acid 4-(2,3-dimethyl-naphtho[2,3-b]thiophen-4-yl)-phenyl ester] |  | 
3 | 190 to 191 °C |  |  | CC(=O)Oc1ccc(-c2c3ccccc3c(Br)c3sc(C)c(C)c23)cc1 [Example 7, Acetic Acid 4-(9-bromo-2,3-dimethyl-naphtho[2,3-b]thiophen-4-yl)-phenyl ester] |  | 
4 | 165 to 168 °C |  |  | Cc1sc2c(Br)c3ccccc3c(-c3ccc(O)cc3)c2c1C [Example 8, 4-(9-Bromo-2,3-dimethyl-naphtho[2,3-b]thiophen-4-yl)-phenol] |  | 
5 | 212 to 213 °C |  |  | Cc1sc2c(I)c3ccccc3c(-c3ccc(OS(C)(=O)=O)cc3)c2c1C [Example 11, Methanesulfonic acid 4-(9-iodo-2,3-dimethyl-naphtho[2,3-b]thiophen-4-yl)-phenyl ester] |  | 
6 | 237 to 239 °C |  |  | Cc1sc2c(Sc3ccccc3)c3ccccc3c(-c3cc(Br)c(O)c(Br)c3)c2c1C [Example 13, 2,6-Dibromo-4-(2,3-dimethyl-9-phenylsulfanyl-naphtho[2,3-b]thiophen-4-yl)-phenol] |  | 
7 | 174 to 175 °C |  |  | COC(=O)[C@@H](Cc1ccccc1)Oc1c(Br)cc(-c2c3ccccc3c(Br)c3sc(C)c(C)c23)cc1Br [Example 28, (R)-2-[2,6-Dibromo-4-(9-bromo-2,3-dimethyl-naphtho[2,3-b]thiophen4-yl)-phenoxy]3-phenyl-propionic acid methyl ester] |  | 
8 |  | 115 nM | −83.54% | Cc1sc2c(Br)c3ccccc3c(-c3cc(Br)c(O[C@H](Cc4ccccc4)C(=O)O)c(Br)c3)c2c1C [Example 29, (R)-2-[2,6-Dibromo-4-(9-bromo-2,3-dimethyl-naphtho[2,3-b]thiophen-4-yl)-phenoxy]3-phenyl-propionic acid] | −38.18 ^ % | % Change Insulin from Vehicle (diabetic (ob/ob) mice; dose 10 mg/Kg): −48.11 ^ %; % Change Insulin from Vehicle (diabetic (ob/ob) mice; [3]): −80.50 ^ %; % Change Insulin from Vehicle (diabetic (ob/ob) mice; dose 100 mg/Kg): −89.59 ^ %; % Change Glucose from Vehicle (diabetic (ob/ob) mice; [4]): −18.6 (a) %; % Change Glucose from Vehicle (diabetic (ob/ob) mice; dose 100 mg/Kg): −48.63 ^ %
9 |  | 60 nM | −89.41% | Cc1sc2c(Br)c3ccccc3c(-c3cc(Br)c(O[C@H](CCc4ccccc4)C(=O)O)c(Br)c3)c2c1C [Example 32, (R)-2-[2,6-Dibromo-4-(9-bromo-2,3-dimethyl-naphtho[2,3-b]thiophen-4-yl)-phenoxy]-4-phenyl-butyric acid] | −15.68 (a) % | % Change Insulin from Vehicle (diabetic (ob/ob) mice; [3]): −48.35 ^ %
10 |  | 29 nM | −61.92% | Cc1sc2c(Sc3ccccc3)c3ccccc3c(-c3cc(Br)c(O[C@H](Cc4ccccc4)C(=O)O)c(Br)c3)c2c1C [Example 33, (R)-2-[2,6-dibromo-4-(2,3-dimethyl-9-phenylsulfanyl-naphtho[2,3-b]thiophen-4-yl)-phenoxy]-3-phenyl-propionic acid] | −21.10 (a) % | % Change Insulin from Vehicle (diabetic (ob/ob) mice; [3]): −39.3 ^ %
11 |  | 273 nM | −58.85% | Cc1c(CN2CCOCC2)sc2c(Br)c3ccccc3c(-c3cc(Br)c(OC(Cc4ccccc4)C(=O)O)c(Br)c3)c12 (stereo not shown) [Example 35, 2-[2,6-Dibromo-4-(9-bromo-3-methyl-2-morpholin-4-ylmethyl-naphtho[2,3-b]thiophen-4-yl)-phenoxy]-3-phenyl-propionic acid] | −25.58 ^ % | % Change Insulin from Vehicle (diabetic (ob/ob) mice; [3]): −2.98 (a) %
12 | 157 to 162 °C | 1740 nM |  | Cc1sc2c(Br)c3ccccc3c(-c3cc(Br)c(O)c(C(C)C)c3)c2c1C [Example 39, 2-Bromo-4-(9-bromo-2,3-dimethyl-naphtho[2,3-b]thiophen-4-yl)-6-isopropyl-phenol] |  | 
13 |  | 110 nM | −83.88% | Cc1sc2c(Br)c3ccccc3c(-c3cc(Br)c(O[C@H](Cc4ccccc4)C(=O)O)c(C(C)C)c3)c2c1C [Example 40, (R)-2-[2-Bromo-4-(9-bromo-2,3-dimethyl-naphtho[2,3-b]thiophen-4-yl)-6-isopropyl-phenoxy]-3-phenyl-propionic acid] |  | % Change Insulin from Vehicle (diabetic (ob/ob) mice; dose 100 mg/Kg): −90.80 ^ %; % Change Glucose from Vehicle (diabetic (ob/ob) mice; dose 100 mg/Kg): −28.20 ^ %
14 |  | 89 nM | −63.41% | CCC(C)c1cc(-c2c3ccccc3c(Br)c3sc(C)c(C)c23)cc(Br)c1O[C@H](Cc1ccccc1)C(=O)O (stereo partly drawn) [Example 42, (R)-2-[2-Bromo-4-(9-bromo-2,3-dimethyl-naphtho[2,3-b]thiophen-4-yl)-6-sec-butyl-phenoxy]-3-phenyl-propionic acid] | −32.5 ^ % | 
15 |  | 171 nM | −78.84% | CCc1cc(-c2c3ccccc3c(Br)c3sc(C)c(C)c23)cc(Br)c1O[C@H](Cc1ccccc1)C(=O)O [Example 43, (R)-2-[2-Bromo-4-(9-bromo-2,3-dimethyl-naphtho[2,3-b]thiophen-4-yl)-6-ethyl-phenoxy]-3-phenyl-propionic acid] | −45.2 ^ % | 
16 |  | 237 nM | −68.50% | Cc1sc2c(Br)c3ccccc3c(-c3ccc(O[C@H](Cc4ccccc4)C(=O)O)c(C(C)C)c3)c2c1C [Example 44, (R)-2-[4-(9-Bromo-2,3-dimethyl-naphtho[2,3-b]thiophen-4-yl)-6-isopropyl-phenoxy]-3-phenyl-propionic acid] | −17.2 ^ % | 
17 |  |  | −89.36% | Cc1cc(-c2c3ccccc3c(Br)c3sc(C)c(C)c23)cc(C)c1O[C@H](Cc1ccccc1)C(=O)O [Example 49, (R)-2-[4-(9-Bromo-2,3-dimethyl-naphtho[2,3-b]thiophen-4-yl)-2,6-dimethyl-phenoxy]-3-phenyl-propionic acid] |  | % Change Glucose from Vehicle (diabetic (ob/ob) mice; [4]): −35.1 ^ %
18 | 205 to 207 °C | 489 nM |  | Cc1sc2c(Br)c3ccccc3c(-c3cc(Br)c(O)c(NC(=O)OC(C)(C)C)c3)c2c1C [Example 56, [3-Bromo-5-(9-bromo-2,3-dimethyl-naphtho[2,3-b]thiophen-4-yl)-2-hydroxy-phenyl]-carbamic Acid tert-Butyl Ester] |  | 
19 | 198 to 200 °C |  |  | COc1c(N)cc(-c2c3ccccc3c(Br)c3sc(C)c(C)c23)cc1Br [Example 58, 3-Bromo-5-(9-bromo-2,3-dimethyl-naphtho[2,3-b]thiophen-4-yl)-2-methoxy-phenylamine] |  | 
20 | 194 to 198 °C | 2200 nM |  | COC(=O)CNc1cc(-c2c3ccccc3c(Br)c3sc(C)c(C)c23)cc(Br)c1OC [Example 59, [3-Bromo-5-(9-bromo-2,3-dimethyl-naphtho[2,3-b]thiophen-4-yl)-2-methoxy-phenylamino]-acetic Acid Methyl Ester] |  | 
21 |  | 164 nM |  | CCc1cc(-c2c3ccccc3c(Br)c3sc(C)c(C)c23)cc(CC)c1O[C@H](Cc1ccccc1)C(=O)O [Example 61, (R)-2-[4-(9-Bromo-2-,3-dimethyl-naphtho[2,3-b]thiophen-4-yl)-2,6-diethyl-phenoxy]-3-phenyl-propionic acid] |  | % Change Glucose from Vehicle (diabetic (ob/ob) mice; dose 10 mg/Kg, measured at 0 hour): −32.8 (c) %
